Patent publication US20250049737A1, “Lauflumide and derivatives thereof for treating chronic fatigue syndrome and myalgic encephalomyelitis/chronic fatigue syndrome (ME/CFS)” (NLS Pharmaceutics AG, priority 2021, published 2025)

Columns and labels:
[1] = target: T1, Histamine 2 (h) (H2) (agonist radioligand) (Homo sapiens, UniProt P25021); assay: Radioligand binding panel (Eurofins CEREP), histamine H2; settings: % inhibition of control specific binding
T1 construct: Eurofins CEREP (contract study 100014859)
Method: (§1) Lauflumide is tested at 10^-5 M, calculated as a % inhibition of control specific binding of a radioactively labeled ligand specific for each target.
(§2) This binding profile panel was broadly defined with roughly an equal number of selective, central and peripheral therapeutically relevant targets, including native animal tissues, radioligands and specific enzymes involved in cell cycle regulation in accordance with Eurofins Standard Operating Procedure (www.eurofins.fr).
(§3) For radioligand binding experiments, the half maximal inhibitory concentration (IC50) and the half maximal effective concentration (EC50) values were determined (via computer software) by nonlinear regression analysis of the competition curves using Hill equation curve fitting. The inhibition constants (Ki) were calculated using the Cheng-Prusoff equation (Ki=IC50/(1+(L/KD)), where L is the concentration of radioligand in the assay, and KD is the affinity of the radioligand for the receptor.
(§4) The results are expressed as a % control specific binding ([measured specific binding/control specific binding]×100) and as a % inhibition of control specific binding (100−[(measured specific binding/control specific binding)×100]) obtained in the presence of the test compounds. […]

[2] = target: T2, NPY1 (h) (reverse agonist radioligand) (Homo sapiens, UniProt P25929); assay: Radioligand binding panel (Eurofins CEREP), NPY1; settings: % inhibition of control specific binding
T2 construct: Eurofins CEREP (contract study 100014859)
T2 sequence (P25929 1-384): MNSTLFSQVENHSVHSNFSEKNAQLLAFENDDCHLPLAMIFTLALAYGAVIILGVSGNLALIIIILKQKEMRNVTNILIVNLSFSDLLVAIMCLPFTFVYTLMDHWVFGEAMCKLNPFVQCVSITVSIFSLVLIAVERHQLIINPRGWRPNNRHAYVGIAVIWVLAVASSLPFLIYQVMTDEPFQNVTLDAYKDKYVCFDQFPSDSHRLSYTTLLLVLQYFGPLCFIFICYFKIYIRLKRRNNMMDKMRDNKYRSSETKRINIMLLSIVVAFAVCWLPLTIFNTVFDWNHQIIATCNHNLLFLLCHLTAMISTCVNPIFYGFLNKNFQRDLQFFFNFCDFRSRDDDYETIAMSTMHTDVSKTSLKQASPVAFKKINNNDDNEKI
Method: as §1, §2, §3, §4

[3] = target: T3, Relaxin-3 (RXFP3) (h) (agonist radioligand) (Homo sapiens, UniProt Q9NSD7); assay: RXFP3 assay (Eurofins/leadHunter GPCR Biosensor cAMP Hunter); assay type: cell-based
T3 sequence (Q9NSD7 1-469): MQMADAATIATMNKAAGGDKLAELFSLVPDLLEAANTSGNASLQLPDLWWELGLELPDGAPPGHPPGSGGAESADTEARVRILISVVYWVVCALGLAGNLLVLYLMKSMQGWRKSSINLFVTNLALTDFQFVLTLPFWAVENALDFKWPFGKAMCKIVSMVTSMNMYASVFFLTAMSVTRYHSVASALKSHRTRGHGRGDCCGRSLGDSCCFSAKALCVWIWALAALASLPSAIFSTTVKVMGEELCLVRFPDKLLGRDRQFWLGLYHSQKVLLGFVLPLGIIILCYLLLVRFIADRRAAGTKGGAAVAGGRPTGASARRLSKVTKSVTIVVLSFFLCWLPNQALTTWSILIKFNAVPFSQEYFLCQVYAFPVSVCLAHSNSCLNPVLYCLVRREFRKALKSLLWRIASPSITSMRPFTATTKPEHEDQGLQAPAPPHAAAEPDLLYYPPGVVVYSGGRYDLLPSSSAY
Method: Lauflumide is found to weakly bind with RXFP3 receptors (Study US073-0006869-Q Eurofins/leadHunter 8/1/19; unpublished data) (Table 1).
In these assays' compounds were tested in agonist and antagonist mode with the GPCR Biosensor Assays and match to this design:
1. cAMP Hunter cell lines were expanded from freezer stocks according to standard procedures.
2. Cells were seeded in a total volume of 20 μL into white walled, 384-well microplates and incubated at 37° C. for the appropriate time prior to testing.
3. cAMP modulation was determined using the DiscoverX HitHunter cAMP XS+ assay.
1. For agonist determination, cells were incubated with sample in the presence of EC80 forskolin to induce response.
2. Media was aspirated from cells and replaced with 15 μL 2:1 HBSS/10 mM Hepes: cAMP XS+ Ab reagent.
3. […]
2. Microplates were read following signal generation with a PerkinElmer Envision™ instrument for chemiluminescent signal detection.
1. Compound activity was analyzed using CBIS data analysis suite (ChemInnovation, CA).
5. For Gi agonist mode assays, percentage activity is calculated using the following formula: […]
8. For Gi antagonist or negative allosteric mode assays, percentage inhibition is calculated using the following formula: % Inhibition=100%×(mean RLU of test sample−mean RLU of EC80 control)/(mean RLU of forskolin positive control−mean RLU of […]

T1 sequence (P25021 whole entry): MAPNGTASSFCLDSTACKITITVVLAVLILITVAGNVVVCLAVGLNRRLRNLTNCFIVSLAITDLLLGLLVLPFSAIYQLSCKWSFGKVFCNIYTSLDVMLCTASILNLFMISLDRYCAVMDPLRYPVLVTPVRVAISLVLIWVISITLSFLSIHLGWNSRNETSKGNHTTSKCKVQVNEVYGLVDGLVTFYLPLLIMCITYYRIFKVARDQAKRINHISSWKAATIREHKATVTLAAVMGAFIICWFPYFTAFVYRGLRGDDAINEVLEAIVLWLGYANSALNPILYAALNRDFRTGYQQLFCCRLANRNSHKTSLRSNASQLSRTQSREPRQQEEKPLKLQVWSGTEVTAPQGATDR

NC(=O)C[S@@+]([O-])C(c1ccc(F)cc1)c1ccc(F)cc1 [Lauflumide, 2-[(R)-((bis(4-fluorophenyl)methane)sulfinyl)]acetamide]
% Inhibition at 10^−5M [1]: 46.6% | % Inhibition at 10^−5M [2]: 27.3% | % Inhibition at 10^−5M [3]: 23.9%
